From publication PMC9861744, “Polysulfone Membranes Doped with Human Neutrophil Elastase Inhibitors: Assessment of Bioactivity and Biocompatibility” (Membranes, 2023) come the findings set out here.

The structures appear in SMILES notation.

The target in this experiment is T1, Human neutrophil elastase (HNE) (Homo sapiens, UniProt P08246).
T1 construct: gene ELANE
T1 sequence (P08246 30-247): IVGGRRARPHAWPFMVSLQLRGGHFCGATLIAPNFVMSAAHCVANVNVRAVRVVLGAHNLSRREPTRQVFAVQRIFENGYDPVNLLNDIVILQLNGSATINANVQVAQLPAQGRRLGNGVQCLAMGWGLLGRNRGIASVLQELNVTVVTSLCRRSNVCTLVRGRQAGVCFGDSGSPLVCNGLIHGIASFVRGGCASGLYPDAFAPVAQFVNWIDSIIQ
Nature of the experiment: fluorometric HNE activity assay with MeO-Suc-Ala-Ala-Pro-Val-AMC, […] min preincubation, […] °C. Format: biochemical.

With `CCC1(CC)C(=O)N(c2ccc(C(=O)O)cc2)C1=O` [D4L-2], the IC50 was determined as 18 nM.
